Holding throughout (assay type): biochemical
The target in one assay is T1, JAK1 (Homo sapiens, UniProt P23458).
T1 construct: JAK1 (aa 850-1154) and TYK2 (aa 871-1187) are expressed with an N-terminally fused GST-tag; GST (N); purchased Carna Bioscience, Inc; host or cells: baculovirus expression system
The assay can be described thus: In vitro enzyme assay (cell-free HTRF kinase assay), JAK1. To be noted: catalytic domain aa 850-1154, GST-tag; ATP 60 μM, SRCtide 400 nM, reaction 120 min. Put shortly:
(§1)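 Catalytic-domain human kinases (baculovirus-expressed; JAK1 GST-tagged aa 850-1154, JAK2/JAK3 His-tagged) reacted with biotin-SRCtide and ATP in HEPES pH 7.5, MgCl2, DTT buffer, 1% DMSO, at room temperature. EDTA stop (10 mM final), then ULight-streptavidin/Eu-anti-phosphotyrosine overnight at 4 °C; HTRF 665/615 ratio gave IC50.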
(In TR-FRET formats the signal depends on donor and acceptor labels being close together.)

Another assay addresses T2, JAK2 (Homo sapiens, UniProt O60674).
T2 construct: All enzymes only contain the catalytic domain; His (N); purchased Carna Bioscience, Inc; host or cells: baculovirus expression system
Put plainly: In vitro enzyme assay (cell-free HTRF kinase assay), JAK2. To be noted: catalytic domain, His-tag; ATP 10 μM, SRCtide 25 nM, reaction 30 min. Put shortly:
as §1

The target of the next assay is T3, JAK3 (Homo sapiens, UniProt P52333).
T3 construct: All enzymes only contain the catalytic domain; His (N); purchased Carna Bioscience, Inc; host or cells: baculovirus expression system
The assay can be described thus: In vitro enzyme assay (cell-free HTRF kinase assay), JAK3. The settings on record: catalytic domain, His-tag; ATP 3 μM, SRCtide 100 nM, reaction 30 min. Put shortly: as §1

T2 sequence (O60674 849-1124 limits assumed): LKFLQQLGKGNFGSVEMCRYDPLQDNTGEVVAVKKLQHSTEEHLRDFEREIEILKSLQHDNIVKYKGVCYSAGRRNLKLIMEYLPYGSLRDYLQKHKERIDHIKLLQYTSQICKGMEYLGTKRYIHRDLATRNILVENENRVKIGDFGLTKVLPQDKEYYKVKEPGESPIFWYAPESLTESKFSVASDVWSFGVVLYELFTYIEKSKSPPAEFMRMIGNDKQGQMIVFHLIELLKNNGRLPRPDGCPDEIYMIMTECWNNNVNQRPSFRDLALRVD
T3 sequence (P52333 822-1111 limits assumed): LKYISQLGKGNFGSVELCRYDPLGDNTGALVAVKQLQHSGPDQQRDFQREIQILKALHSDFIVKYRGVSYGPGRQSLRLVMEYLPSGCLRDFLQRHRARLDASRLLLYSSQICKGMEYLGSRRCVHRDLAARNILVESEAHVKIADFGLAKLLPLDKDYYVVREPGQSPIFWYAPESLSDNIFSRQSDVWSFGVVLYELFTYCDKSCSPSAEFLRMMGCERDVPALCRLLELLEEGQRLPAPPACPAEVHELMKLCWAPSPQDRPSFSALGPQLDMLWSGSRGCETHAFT
T1 sequence (P23458 850-1154): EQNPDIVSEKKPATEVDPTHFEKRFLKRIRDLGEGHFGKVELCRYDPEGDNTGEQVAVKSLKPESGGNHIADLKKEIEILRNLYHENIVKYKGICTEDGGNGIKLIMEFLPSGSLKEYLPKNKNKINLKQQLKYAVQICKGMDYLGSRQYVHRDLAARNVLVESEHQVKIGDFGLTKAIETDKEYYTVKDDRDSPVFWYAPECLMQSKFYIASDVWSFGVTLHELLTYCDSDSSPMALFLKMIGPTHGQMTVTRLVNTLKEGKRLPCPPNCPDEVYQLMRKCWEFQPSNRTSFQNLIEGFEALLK

What is called IC50 is the point on the concentration scale where inhibition reaches its midpoint. A higher IC50 goes with weaker potency in that assay. As for `NCCNC(=O)c1cc(Cl)c(C(=O)n2ccc3c(NC(=O)C4CC4)nccc32)c(Cl)c1` [Compound No. 127, N-(2-Aminoethyl)-3,5-dichloro-4-({4-[(cyclopropylcarbonyl)amino]-1H-pyrrolo[3,2-c]pyridin-1-yl}carbonyl)benzamide], the IC50 against JAK1 was < 500 nM; on JAK2 it was < 100 nM; against JAK3, < 50 nM.

Consider `COC(=O)CNC(=O)c1cc(Cl)c(C(=O)c2c[nH]c3c(NC(=O)C4CC4)nccc23)c(Cl)c1` [Compound No. 35, Methyl N-[3,5-dichloro-4-({7-[(cyclopropylcarbonyl)amino]-1H-pyrrolo[2,3-c]pyridin-3-yl}carbonyl)benzoyl]glycinate], for which the IC50 against JAK1, against JAK2 and at JAK3 was < 500 nM throughout.

In the case of `O=C(NCCc1cccnc1)c1cc(Cl)c(C(=O)n2ccc3c(NC(=O)C4CC4)nccc32)c(Cl)c1` [Compound No. 169, 3,5-Dichloro-4-({4-[(cyclopropylcarbonyl)amino]-1H-pyrrolo[3,2-c]pyridin-1-yl}carbonyl)-N-[2-(pyridin-3-yl)ethyl]benzamide], the IC50 at JAK1 is < 1000 nM; against JAK2, < 500 nM; on JAK3, < 1000 nM.

Consider `N#Cc1cc(Cl)c(C(=O)c2c[nH]c3cnccc23)c(Cl)c1` [Compound No. 6, 3,5-Dichloro-4-(1H-pyrrolo[2,3-c]pyridin-3-ylcarbonyl)benzonitrile], for which the IC50 on JAK1, at JAK2 and against JAK3 was < 500 nM in each case.

Values taken from US8980911B2, “Heterocyclic compounds as protein kinase inhibitors” (Daiichi Sankyo Company, Limited, priority 2011, dated 2015).
